The values below come from ChEMBL document CHEMBL4507276 (2021).

The structures appear in SMILES notation.

The target in series [1] is Tyrosine-protein kinase ABL1 (Homo sapiens) (UniProt P00519). Conditions: Compound concentration 1000.0 nM; call rule not given here.
Series [2] deals with 5-hydroxytryptamine receptor 2B (Homo sapiens) (UniProt P41595). To be noted: Compound concentration 10.0 uM.
Series [3] deals with Gamma-aminobutyric acid receptor subunit alpha-1 (Rattus norvegicus) (UniProt P62813). The series can be described thus: GABAA MUSCIMOL CENT Eurofins-Panlabs selectivity data (BI). Conditions: Compound concentration 10.0 uM.
For series [4], the target named is Cannabinoid receptor 2 (Homo sapiens) (UniProt P34972). The series can be described thus: CB2/PERIPH/H Cerep selectivity data (BI). Conditions: Compound concentration 20.0 uM.
The target of series [5] is T1, Serine/threonine-protein kinase Chk1 (Homo sapiens) (UniProt O14757).
T1 sequence (whole entry): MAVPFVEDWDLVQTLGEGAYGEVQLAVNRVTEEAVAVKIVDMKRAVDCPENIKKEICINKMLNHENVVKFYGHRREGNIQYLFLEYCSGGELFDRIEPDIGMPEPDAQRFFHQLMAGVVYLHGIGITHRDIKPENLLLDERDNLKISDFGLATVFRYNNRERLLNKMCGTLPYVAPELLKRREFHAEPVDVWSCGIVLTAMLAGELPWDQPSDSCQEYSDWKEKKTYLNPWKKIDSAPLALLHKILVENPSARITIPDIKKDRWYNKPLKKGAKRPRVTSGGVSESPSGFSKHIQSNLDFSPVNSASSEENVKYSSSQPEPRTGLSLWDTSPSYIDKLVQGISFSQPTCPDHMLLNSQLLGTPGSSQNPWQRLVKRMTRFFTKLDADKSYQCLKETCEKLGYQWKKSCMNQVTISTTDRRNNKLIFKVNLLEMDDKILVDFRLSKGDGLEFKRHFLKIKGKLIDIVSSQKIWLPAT
Put plainly: CHEK1 Invitrogen selectivity data (BI). To be noted: Compound concentration 3.0 uM.

For series [6], the target named is Apelin receptor (Homo sapiens) (UniProt P35414). The series can be described thus: APJH_AGON Cerep selectivity data (BI). Conditions: filed as agonist, Compound concentration 20.0 uM.
Sequence of Apelin receptor (Homo sapiens) (P35414 whole entry): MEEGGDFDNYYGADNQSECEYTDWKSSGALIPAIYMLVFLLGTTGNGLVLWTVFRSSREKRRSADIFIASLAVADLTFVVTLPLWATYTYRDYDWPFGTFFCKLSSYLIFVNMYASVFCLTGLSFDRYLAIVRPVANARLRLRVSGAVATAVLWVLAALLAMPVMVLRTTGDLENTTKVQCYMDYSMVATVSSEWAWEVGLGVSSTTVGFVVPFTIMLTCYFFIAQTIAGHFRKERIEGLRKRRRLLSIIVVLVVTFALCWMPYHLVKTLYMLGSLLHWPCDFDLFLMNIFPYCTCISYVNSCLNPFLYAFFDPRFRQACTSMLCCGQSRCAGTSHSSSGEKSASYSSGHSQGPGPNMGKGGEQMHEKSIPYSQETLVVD
Series [7] deals with Adenosine receptor A1 (Homo sapiens) (UniProt P30542). The series can be described thus: A1H_AGON Cerep selectivity data (BI). To be noted: filed as agonist, Compound concentration 20.0 uM.
The target of series [8] is Myosin light chain kinase, smooth muscle (Homo sapiens) (UniProt Q15746). The series can be described thus: MYLK Invitrogen selectivity data (BI). Conditions: Compound concentration 3.0 uM.
For series [9], the target named is Death-associated protein kinase 1 (Homo sapiens) (UniProt P53355). Put plainly: DAPK1 Invitrogen selectivity data (BI). Conditions: Compound concentration 3.0 uM.
Sequence of Death-associated protein kinase 1 (Homo sapiens) (P53355 whole entry, looked up): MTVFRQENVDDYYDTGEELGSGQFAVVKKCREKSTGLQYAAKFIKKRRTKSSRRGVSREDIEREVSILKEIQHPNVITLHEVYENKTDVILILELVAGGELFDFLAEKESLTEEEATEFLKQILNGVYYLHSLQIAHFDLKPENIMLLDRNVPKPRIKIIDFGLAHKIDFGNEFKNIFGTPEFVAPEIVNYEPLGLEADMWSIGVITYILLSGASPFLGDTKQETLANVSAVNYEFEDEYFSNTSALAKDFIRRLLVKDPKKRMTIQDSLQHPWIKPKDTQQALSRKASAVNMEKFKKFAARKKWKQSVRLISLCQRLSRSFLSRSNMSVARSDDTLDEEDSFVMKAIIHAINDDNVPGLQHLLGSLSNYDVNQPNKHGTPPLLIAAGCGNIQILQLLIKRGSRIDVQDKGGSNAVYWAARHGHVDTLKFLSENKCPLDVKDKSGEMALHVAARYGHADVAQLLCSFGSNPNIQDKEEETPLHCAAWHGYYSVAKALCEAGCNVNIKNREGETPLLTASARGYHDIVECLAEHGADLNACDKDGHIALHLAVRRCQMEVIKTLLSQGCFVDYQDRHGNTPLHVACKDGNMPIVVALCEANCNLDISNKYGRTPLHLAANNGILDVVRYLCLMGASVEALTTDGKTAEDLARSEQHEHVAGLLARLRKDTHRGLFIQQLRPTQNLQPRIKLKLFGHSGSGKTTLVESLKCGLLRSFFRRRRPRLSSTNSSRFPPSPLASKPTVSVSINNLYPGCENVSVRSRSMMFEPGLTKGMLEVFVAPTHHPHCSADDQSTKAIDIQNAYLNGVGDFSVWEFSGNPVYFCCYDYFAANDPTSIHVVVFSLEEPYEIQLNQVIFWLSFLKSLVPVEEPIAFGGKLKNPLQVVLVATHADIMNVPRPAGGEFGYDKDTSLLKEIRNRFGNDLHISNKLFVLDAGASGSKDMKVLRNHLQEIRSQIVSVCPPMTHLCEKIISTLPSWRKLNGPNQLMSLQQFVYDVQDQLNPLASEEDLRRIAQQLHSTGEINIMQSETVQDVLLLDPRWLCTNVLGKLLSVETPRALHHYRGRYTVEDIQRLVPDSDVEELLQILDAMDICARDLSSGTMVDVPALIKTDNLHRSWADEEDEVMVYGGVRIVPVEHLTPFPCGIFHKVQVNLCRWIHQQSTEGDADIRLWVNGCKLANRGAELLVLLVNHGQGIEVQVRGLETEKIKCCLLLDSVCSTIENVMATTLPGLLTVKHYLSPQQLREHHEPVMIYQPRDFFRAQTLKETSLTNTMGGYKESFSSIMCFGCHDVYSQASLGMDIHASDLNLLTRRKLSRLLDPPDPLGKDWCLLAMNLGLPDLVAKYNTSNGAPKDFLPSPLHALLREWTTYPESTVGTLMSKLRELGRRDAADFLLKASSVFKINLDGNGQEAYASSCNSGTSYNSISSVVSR
Series [10] has as its system T2, Receptor-type tyrosine-protein kinase FLT3 (Homo sapiens), P36888 [D835Y].
T2 sequence (whole entry): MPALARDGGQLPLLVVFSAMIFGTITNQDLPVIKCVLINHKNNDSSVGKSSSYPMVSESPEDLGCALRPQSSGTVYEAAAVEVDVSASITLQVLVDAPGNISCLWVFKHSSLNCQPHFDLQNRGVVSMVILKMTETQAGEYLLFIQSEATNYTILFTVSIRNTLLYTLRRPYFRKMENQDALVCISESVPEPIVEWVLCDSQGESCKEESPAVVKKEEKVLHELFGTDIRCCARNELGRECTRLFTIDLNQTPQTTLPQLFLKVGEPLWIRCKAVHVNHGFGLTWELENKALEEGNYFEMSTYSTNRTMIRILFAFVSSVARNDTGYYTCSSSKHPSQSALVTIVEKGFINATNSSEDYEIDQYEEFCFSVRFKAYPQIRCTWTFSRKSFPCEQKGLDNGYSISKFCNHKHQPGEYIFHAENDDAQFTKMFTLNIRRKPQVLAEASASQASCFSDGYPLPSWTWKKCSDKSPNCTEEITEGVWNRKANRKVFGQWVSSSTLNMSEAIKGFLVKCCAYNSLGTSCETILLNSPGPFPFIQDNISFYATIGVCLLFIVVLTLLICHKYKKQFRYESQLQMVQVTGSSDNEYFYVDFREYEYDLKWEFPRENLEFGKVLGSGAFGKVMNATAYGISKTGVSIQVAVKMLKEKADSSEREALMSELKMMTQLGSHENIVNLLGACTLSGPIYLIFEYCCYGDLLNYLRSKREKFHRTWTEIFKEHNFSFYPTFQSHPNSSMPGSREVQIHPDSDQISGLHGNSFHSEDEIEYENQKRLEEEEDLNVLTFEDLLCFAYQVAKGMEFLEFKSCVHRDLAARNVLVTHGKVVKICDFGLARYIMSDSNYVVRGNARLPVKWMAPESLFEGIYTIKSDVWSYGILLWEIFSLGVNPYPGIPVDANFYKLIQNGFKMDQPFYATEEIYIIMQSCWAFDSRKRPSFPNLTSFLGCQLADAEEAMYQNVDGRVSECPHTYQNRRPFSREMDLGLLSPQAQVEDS
The series can be described thus: FLT3 D835Y Invitrogen selectivity data (BI). Conditions: Compound concentration 3.0 uM.

Series [11] has as its target T3, Interleukin-1 receptor-associated kinase 4 (Homo sapiens) (UniProt Q9NWZ3).
T3 sequence (whole entry): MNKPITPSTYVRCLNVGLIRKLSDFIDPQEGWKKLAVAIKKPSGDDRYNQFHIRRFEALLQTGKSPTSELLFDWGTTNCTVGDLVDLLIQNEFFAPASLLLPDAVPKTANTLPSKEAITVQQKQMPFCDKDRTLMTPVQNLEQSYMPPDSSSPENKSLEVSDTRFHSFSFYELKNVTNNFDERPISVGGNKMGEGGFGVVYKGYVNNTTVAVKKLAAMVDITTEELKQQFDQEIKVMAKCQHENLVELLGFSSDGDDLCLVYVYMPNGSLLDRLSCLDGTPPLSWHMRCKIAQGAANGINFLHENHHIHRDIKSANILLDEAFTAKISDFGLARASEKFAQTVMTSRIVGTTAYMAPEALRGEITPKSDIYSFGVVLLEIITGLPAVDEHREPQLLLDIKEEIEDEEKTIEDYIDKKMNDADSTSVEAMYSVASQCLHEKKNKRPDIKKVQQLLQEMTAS
Put plainly: IRAK4 Invitrogen selectivity data (BI). To be noted: Compound concentration 3.0 uM.

Series [12] has as its target LIM domain kinase 1 (Homo sapiens) (UniProt P53667). Put plainly: LIMK1 Invitrogen selectivity data (BI). Conditions: Compound concentration 3.0 uM.
Series [13] concerns the target Tyrosine-protein kinase Fgr (Homo sapiens) (UniProt P09769). Put plainly: FGR Invitrogen selectivity data (BI). Conditions: Compound concentration 3.0 uM.
In series [14] the target is Ribosomal protein S6 kinase alpha-5 (Homo sapiens) (UniProt O75582). The series can be described thus: RPS6KA5 Invitrogen selectivity data (BI). To be noted: Compound concentration 3.0 uM.
Sequence of Ribosomal protein S6 kinase alpha-5 (Homo sapiens) (O75582 whole entry, looked up): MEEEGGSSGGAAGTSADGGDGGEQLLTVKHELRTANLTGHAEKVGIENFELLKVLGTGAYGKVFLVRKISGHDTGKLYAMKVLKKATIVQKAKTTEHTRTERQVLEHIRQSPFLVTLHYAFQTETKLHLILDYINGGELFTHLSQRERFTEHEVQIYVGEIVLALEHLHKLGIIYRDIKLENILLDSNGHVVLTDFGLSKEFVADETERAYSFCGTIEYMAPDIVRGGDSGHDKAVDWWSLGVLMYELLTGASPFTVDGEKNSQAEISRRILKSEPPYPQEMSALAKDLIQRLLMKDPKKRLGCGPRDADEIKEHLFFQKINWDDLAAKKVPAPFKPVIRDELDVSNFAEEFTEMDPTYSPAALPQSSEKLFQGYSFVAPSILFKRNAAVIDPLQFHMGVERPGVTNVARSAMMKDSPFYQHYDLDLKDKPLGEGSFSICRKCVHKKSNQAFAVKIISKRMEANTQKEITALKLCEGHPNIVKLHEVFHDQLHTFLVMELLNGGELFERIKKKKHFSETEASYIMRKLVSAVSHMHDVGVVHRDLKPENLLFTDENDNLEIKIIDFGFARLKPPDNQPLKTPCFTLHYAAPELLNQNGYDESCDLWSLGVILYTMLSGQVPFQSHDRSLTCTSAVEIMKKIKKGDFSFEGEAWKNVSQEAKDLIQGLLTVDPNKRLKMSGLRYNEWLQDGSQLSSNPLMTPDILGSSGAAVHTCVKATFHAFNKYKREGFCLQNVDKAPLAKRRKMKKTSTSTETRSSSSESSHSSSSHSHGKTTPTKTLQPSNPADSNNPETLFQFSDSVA
The subject of series [15] is Mast/stem cell growth factor receptor Kit (Homo sapiens), P10721 [T670I]. Put plainly: KIT T670I Invitrogen selectivity data (BI). Conditions: Compound concentration 3.0 uM.
Series [16] deals with Calcium/calmodulin-dependent protein kinase type II subunit beta (Homo sapiens) (UniProt Q13554). Put plainly: CAMK2B Invitrogen selectivity data (BI). Conditions: Compound concentration 3.0 uM.
Series [17] concerns the target RAF proto-oncogene serine/threonine-protein kinase (Homo sapiens) (UniProt P04049). The series can be described thus: RAF1_Y_D Invitrogen selectivity data (BI). To be noted: Compound concentration 3.0 uM.
The target in series [18] is L-type Ca2+ channel (dihydropyridine site), Cav1.2 alpha-1C (Rattus norvegicus, UniProt P22002). The series can be described thus: CA+/DHPSI/R Cerep selectivity data (BI). Conditions: rat brain, probe [3H](+)PN200-110, compound concentration 20 uM, read-out: % Ctrl. Set-up: mode of action inhibitor.

Sequence of RAF proto-oncogene serine/threonine-protein kinase (Homo sapiens) (P04049 whole entry): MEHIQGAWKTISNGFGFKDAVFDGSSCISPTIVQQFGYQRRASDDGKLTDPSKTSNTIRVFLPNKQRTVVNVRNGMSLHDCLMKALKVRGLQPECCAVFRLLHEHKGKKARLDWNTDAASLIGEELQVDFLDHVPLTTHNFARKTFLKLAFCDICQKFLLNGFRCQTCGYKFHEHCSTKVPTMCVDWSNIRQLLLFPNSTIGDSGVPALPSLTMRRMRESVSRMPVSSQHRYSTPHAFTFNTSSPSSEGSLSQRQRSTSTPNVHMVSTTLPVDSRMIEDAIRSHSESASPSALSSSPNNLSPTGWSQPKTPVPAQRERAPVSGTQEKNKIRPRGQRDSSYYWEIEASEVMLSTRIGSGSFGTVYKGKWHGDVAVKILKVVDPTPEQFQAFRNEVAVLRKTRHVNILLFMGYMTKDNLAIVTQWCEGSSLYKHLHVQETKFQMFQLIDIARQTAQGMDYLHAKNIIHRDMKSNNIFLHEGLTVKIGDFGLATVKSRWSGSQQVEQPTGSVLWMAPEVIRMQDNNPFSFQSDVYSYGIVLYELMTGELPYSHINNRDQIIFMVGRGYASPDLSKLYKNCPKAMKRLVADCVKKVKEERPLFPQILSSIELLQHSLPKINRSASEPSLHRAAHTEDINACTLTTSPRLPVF
Sequence of 5-hydroxytryptamine receptor 2B (Homo sapiens) (P41595 whole entry): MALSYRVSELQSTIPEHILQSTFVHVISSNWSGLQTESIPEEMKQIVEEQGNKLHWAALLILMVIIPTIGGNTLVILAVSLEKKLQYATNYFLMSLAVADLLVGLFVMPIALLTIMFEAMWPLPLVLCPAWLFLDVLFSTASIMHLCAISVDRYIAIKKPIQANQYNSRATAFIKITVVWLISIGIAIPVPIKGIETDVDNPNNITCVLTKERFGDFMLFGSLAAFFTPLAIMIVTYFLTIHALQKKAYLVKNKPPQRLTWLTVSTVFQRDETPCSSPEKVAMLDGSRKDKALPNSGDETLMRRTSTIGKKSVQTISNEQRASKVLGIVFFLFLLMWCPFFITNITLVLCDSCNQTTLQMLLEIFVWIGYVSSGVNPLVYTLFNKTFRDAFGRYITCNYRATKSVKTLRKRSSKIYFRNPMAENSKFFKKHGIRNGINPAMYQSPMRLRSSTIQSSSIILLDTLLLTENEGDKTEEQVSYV
Sequence of Tyrosine-protein kinase Fgr (Homo sapiens) (P09769 2-529 limits assumed): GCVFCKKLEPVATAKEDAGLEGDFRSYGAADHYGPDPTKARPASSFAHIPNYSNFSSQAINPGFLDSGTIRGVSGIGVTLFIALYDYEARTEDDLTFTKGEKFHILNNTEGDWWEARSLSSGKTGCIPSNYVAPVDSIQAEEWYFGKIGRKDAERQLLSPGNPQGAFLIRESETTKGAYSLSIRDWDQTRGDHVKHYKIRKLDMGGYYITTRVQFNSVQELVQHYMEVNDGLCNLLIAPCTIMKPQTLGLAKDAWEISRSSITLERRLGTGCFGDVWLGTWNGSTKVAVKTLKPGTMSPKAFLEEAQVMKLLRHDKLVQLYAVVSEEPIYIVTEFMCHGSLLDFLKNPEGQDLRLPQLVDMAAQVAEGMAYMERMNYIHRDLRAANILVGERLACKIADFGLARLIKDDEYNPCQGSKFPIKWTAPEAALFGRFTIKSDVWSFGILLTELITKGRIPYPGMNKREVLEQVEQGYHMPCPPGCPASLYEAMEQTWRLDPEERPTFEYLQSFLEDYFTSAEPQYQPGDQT
Sequence of LIM domain kinase 1 (Homo sapiens) (P53667 whole entry, looked up, the tested form may be a part): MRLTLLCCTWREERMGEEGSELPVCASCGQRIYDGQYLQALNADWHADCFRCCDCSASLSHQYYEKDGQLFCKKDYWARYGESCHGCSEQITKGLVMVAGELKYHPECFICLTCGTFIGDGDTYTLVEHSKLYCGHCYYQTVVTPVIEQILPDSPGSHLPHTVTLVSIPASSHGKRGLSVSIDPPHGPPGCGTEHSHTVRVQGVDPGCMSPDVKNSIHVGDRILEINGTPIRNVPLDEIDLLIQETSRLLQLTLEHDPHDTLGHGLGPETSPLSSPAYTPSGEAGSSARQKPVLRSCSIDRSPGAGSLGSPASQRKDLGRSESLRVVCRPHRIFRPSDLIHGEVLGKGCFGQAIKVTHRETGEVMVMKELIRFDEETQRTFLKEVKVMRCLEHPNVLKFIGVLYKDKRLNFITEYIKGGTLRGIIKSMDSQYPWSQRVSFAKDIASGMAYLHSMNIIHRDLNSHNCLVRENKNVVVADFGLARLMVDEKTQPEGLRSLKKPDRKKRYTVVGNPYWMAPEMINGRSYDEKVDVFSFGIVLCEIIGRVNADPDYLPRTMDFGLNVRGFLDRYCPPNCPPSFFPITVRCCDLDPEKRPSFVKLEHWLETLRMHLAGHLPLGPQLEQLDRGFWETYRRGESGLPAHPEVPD

With `CN(C)C(=O)Cn1cc(-c2nc(C3(c4ccc(-c5cnc(N)nc5)cc4)CC3)no2)cn1` [BI 0153], the residual activity in [1] is 100%.
For `CN(C)C(=O)Cn1cc(-c2nc([C@@](C)(c3ccc(-c4cnc(N)nc4)cc3)C3CC3)no2)cn1` [BI 665915], in series [2], the inhibition is -5.4%. The residual activity in series [3] is 100%; in [4], 93%; in [5] it was 96%; in [6], 101%; in [7] it was 81%; in series [8], 100%. For the same compound, the residual activity is 99.5% in [9]; 79% in series [10]; 102% in series [11]; 96% in [12]; 90.5% in series [13]; 97.5% in [14]. Also, the results for the residual activity in series [15], in series [16] and in [17] were 93%, 95% and 98%, respectively. Moreover, the activity at 20 µM in series [18] is recorded as 85% (not active).
